Experimental data reported in the supplement of paper PMC10307832.

Columns and labels:
Assay in all cases: relative viability (nuclei count vs DMSO), 5 days (fraction); higher = more cells survive
[1] = compound: C#Cc1cccc(Nc2ncnc3cc(OC)c(OCCCCCCC(=O)NO)cc23)c1 [CUDC-101] + Cc1nc(Nc2ncc(C(=O)Nc3c(C)cccc3Cl)s2)cc(N2CCN(CCO)CC2)n1 [Dasatinib] (partner 0.075 µM)
In short: (§1)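 One day after seeding in 1536-well plates, lung cancer cell lines were dosed by pin tool. Dosing was either single-drug or a fixed anchor-drug dose plus five library-drug doses (not always all listed) in √10 steps. After 5 days, nuclei were stained in one fix-and-stain step and counted on 4× images, and relative viability is the nuclei count of treated wells over that of vehicle wells, given as the median of duplicate plates.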

[2] = compound: COc1cc2/c(=N/c3ccc(Br)cc3F)nc[nH]c2cc1OCC1CCN(C)CC1 [Vandetanib] + CC(=O)c1c(C)c2cnc(Nc3ccc(N4CCNCC4)cn3)nc2n(C2CCCC2)c1=O [Palbociclib] (partner 0.5 µM)
In short: as §1

[3] = compound: COc1cc2/c(=N/c3ccc(Br)cc3F)nc[nH]c2cc1OCC1CCN(C)CC1 [Vandetanib] + C[C@@H](Oc1cc(-c2cnn(C3CCNCC3)c2)cnc1N)c1c(Cl)ccc(F)c1Cl [Crizotinib] (partner 1 µM)
In short: as §1

[4] = compound: COc1cc2/c(=N/c3ccc(Br)cc3F)nc[nH]c2cc1OCC1CCN(C)CC1 [Vandetanib] + N=C(N)NC(=N)NCCc1ccccc1 [Phenformin] (partner 250 µM)
In short: as §1

Cell Line	relative viability ([1]; first compound 0.01 µM)	relative viability ([1]; first compound 0.03162 µM)	relative viability ([1]; first compound 0.1 µM)	relative viability ([1]; first compound 0.3162 µM)	relative viability ([1]; first compound 1 µM)	relative viability ([2]; first compound 0.02 µM)	relative viability ([2]; first compound 0.06325 µM)	relative viability ([2]; first compound 0.2 µM)	relative viability ([2]; first compound 0.6325 µM)	relative viability ([2]; first compound 2 µM)	relative viability ([3]; first compound 0.02 µM)	relative viability ([3]; first compound 0.06325 µM)	relative viability ([3]; first compound 0.2 µM)	relative viability ([3]; first compound 0.6325 µM)	relative viability ([3]; first compound 2 µM)	relative viability ([4]; first compound 0.02 µM)	relative viability ([4]; first compound 0.06325 µM)	relative viability ([4]; first compound 0.2 µM)	relative viability ([4]; first compound 0.6325 µM)	relative viability ([4]; first compound 2 µM)
NCI-H1666	0.903	0.786	0.814	0.911	0.795	0.669	0.605	0.62	0.621	0.63	1.05	0.894	0.974	0.859	0.793	0.541	0.559	0.585	0.586	0.562
NCI-H1734	0.502	0.43	0.461	0.536	0.376	0.35	0.348	0.314	0.373	0.295	0.737	0.618	0.67	0.639	0.648	0.403	0.369	0.32	0.379	0.39
NCI-H1755	0.4	0.376	0.462	0.519	0.377	0.46	0.471	0.427	0.446	0.439	0.853	0.843	0.789	0.85	0.829	0.67	0.593	0.671	0.38	0.609
NCI-H1792	0.764	0.683	0.856	0.819	0.691	0.639	0.626	0.636	0.634	0.501	0.941	0.973	0.924	0.991	0.894	0.298	0.236	0.184	0.254	0.175
NCI-H1915	0.301	0.292	0.293	0.292	0.24	0.51	0.519	0.499	0.484	0.522	0.842	0.889	0.933	0.857	0.892	0.366	0.353	0.387	0.372	0.365
NCI-H1944	0.215	0.184	0.201	0.196	0.196	0.323	0.343	0.322	0.276	0.303	1.01	1.1	1.15	1.07	0.942	0.205	0.195	0.209	0.168	0.188
NCI-H1975	0.287	0.373	0.315	0.413	0.331	0.539	0.542	0.593	0.585	0.61	0.887	0.943	0.922	0.994	0.852	0.391	0.398	0.391	0.389	0.403
NCI-H1993	0.594	0.666	0.686	0.571	0.541	0.661	0.628	0.602	0.581	0.392	0.924	0.77	0.861	0.77	0.72	0.523	0.506	0.554	0.605	0.53
NCI-H2009	0.321	0.281	0.396	0.443	0.338	0.221	0.3	0.197	0.25	0.25	1.06	0.964	1.08	1.02	1.03	0.495	0.462	0.416	0.443	0.361
NCI-H2023	0.564	0.635	0.616	0.748	0.461	0.359	0.369		0.314	0.319	0.661	0.556	0.624	0.49	0.499	0.399	0.402	0.354	0.323	0.328
NCI-H2085	0.205	0.274	0.221	0.196	0.215	0.447	0.479	0.496	0.498	0.489	0.807	0.841	0.932	0.937	0.875	0.769	0.674	0.649	0.668	0.595
NCI-H2087	0.795	0.946	0.841	0.971	0.718	0.244	0.196	0.183	0.281	0.212	0.785	0.949	0.835	0.88	0.904	0.415	0.45	0.457	0.447	0.44
NCI-H2126	0.7	0.588	0.612	0.579	0.481	0.338	0.348	0.328	0.356	0.35	0.983	0.964	0.99	0.97	0.959	0.541	0.5	0.522	0.495	0.49
NCI-H2170	0.633	0.512	0.583	0.475	0.363	0.402	0.434	0.398	0.376	0.394	1.22	1.26	1.11	1.18	1.1	0.342	0.402	0.415	0.409	0.357
NCI-H2228	0.542	0.543	0.536	0.52	0.4	0.718	0.644	0.804	0.725	0.659	0.446	0.473		0.484	0.479	0.263	0.281	0.384	0.294	0.303
NCI-H2347	0.308	0.323	0.261	0.337	0.346	0.423	0.315	0.476	0.457	0.443	0.665	0.56	0.737	0.789	0.718	0.336		0.256	0.403	0.493
